From US5641779A, “Selective ligands of 5-HT1D -5-HT1B receptors derived from indolepiperazine which are useful medicaments” (Pierre Fabre Medicament, priority 1992, dated 1997)
Counter-ions that a name gives are not always drawn. Like-named read-outs stand apart in the source and are kept apart here.

How the values were obtained:
5-HT2 = biological target: T1, 5-HT2 (Rattus norvegicus, UniProt P14842); experiment: 5-HT2 receptor binding (Leysen et al.); conditions: 3H-ketanserine (title of cited method)
T1 construct: from tissue
Protocol: (§1) The IC50 values of the various products which form part of this invention for the other receptors were measured according to the techniques described in the following references:
Leysen J. E., Niemegeers C. J. E., Van Nueten J. M. and Laduron P.M. ^3 H-ketanserine (R 41468), a selective ^3 H ligand for serotonin2 receptor binding sites. Mol. Pharmacol., 21, 301-330, 1982.

D2-Dopaminergic receptor = biological target: T2, D2-Dopaminergic receptor (Canis lupus familiaris, UniProt Q9GJU1); experiment: D2-Dopaminergic receptor binding (Nisnik et al.); conditions: 3H-YM-09159-2 (title of cited method); read-out: IC50 D2
T2 construct: from tissue
Protocol: as §1
Nisnik H. B., Grigoriadis D. E., Pri-Bar I., Buckman O. and Seeman P. Dopamine D2 receptors selectively labeled by a benzamide neuroleptic: ^3 H-YM-09159-2 Naunyn-Schmiedeberg's Arch. Pharmacol. 329, 333-343, 1985.

5-HT1C = biological target: T3, 5-HT1C (Sus scrofa, UniProt K7GSR7); experiment: 5-HT1C receptor binding (Pazos et al.); parameters: species or system porcine
T3 construct: serotonergic ligands to the porcine choroid plexus; from tissue; host or cells: porcine choroid plexus
T3 sequence (K7GSR7 1-457): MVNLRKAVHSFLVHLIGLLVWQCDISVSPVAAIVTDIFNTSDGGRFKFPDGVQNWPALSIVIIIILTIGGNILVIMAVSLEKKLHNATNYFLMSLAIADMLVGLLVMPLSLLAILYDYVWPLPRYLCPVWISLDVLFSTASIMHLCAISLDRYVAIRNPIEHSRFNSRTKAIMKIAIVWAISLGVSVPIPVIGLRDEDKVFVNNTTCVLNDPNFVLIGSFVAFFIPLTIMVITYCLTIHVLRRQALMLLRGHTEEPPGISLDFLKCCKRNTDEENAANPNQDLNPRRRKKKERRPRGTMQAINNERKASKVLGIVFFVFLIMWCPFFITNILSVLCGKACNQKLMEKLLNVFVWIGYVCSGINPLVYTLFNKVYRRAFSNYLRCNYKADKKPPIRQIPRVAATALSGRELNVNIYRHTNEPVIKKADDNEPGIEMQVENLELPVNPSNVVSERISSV
Protocol: as §1
Pazos A., Hoyer D. and Palacios J. M. The binding sites of serotonergic ligands to the porcine choroid plexus: characterization of a new type of serotonin recognition site. Eur. J. Pharmacol., 106, 539-546, 1985.

5-HT1D = experiment: Affinity for 5-HT1D receptors (3H-5-HT binding, sheep caudate nuclei membranes); conditions: Ratio of the IC50 values for the 5HT1A and 5HT1D receptors
Protocol: This study is carried out according to the technique described by Herrick-Davis and Titeler (J. Neurochem. 50, 1624-1631, 1988).
Preparation of the membranes:
Sheep brains are removed at the local abattoir and transported in ice. The caudate nuclei are removed, weighed and homogenized with a Polytron for 20 sec. (speed 6-7) in 20 volumes of Tris-HCl 50 mM, pH 7.7. The homogenate is centrifuged for 10 min at 48,000 g with an L5 50E centrifuge (Beckman).
The pellet, taken up in 20 volumes of Tris-HCl 50 mM, pH 7.7, is placed in a water bath at 37° C. for 10 min and then recentrifuged for 10 min at 48,000 g. The pellet then obtained is immediately frozen in fractions containing 0.5 g of tissue.
The pellet is defrosted and homogenized with a Dounce in 80 volumes of Tris-HCl, 50 mM pH 7.7 containing 4 mM CaCl2, 10μM of pargyline and 0.1% of ascorbic acid.
Binding is carried out at 25° C. by incubating for 30 min:
0.1 ml of buffer or 10 μM, as final concentration, of sumatriptan, in order to obtain the non-specific binding, or the product which forms part of this invention at various concentrations (between 10^-10 and 10^-6 M).
0.8 ml of membrane suspension
0.1 ml of ^3 H-5-HT (15 to 30 Ci/mM, New England Nuclear France)
The incubation is brought to an end by rapid filtration through GF/B filters and rinsing with 3 times 3 ml of ice-cold buffer, using a harvester manufactured by Brandel which makes it possible to filter 48 samples. The filters are introduced into vials containing 4 ml of emulsifier-safe liquid scintillant (Packard) and the radioactivity measured with a Tri-carb 4640 counter (Packard).
The IC50 (concentration which inhibits the specific affinity by 50%) is determined graphically.

α2-Adrenergic receptor = biological target: T4, α2-Adrenergic receptor (Rattus norvegicus, UniProt P22909); experiment: α2-Adrenergic receptor binding (Mallard et al.); conditions: rat brain (title of cited method); read-out: IC50 α2
T4 construct: in the rat brain; from tissue; host or cells: rat brain
T4 sequence (P22909 1-465): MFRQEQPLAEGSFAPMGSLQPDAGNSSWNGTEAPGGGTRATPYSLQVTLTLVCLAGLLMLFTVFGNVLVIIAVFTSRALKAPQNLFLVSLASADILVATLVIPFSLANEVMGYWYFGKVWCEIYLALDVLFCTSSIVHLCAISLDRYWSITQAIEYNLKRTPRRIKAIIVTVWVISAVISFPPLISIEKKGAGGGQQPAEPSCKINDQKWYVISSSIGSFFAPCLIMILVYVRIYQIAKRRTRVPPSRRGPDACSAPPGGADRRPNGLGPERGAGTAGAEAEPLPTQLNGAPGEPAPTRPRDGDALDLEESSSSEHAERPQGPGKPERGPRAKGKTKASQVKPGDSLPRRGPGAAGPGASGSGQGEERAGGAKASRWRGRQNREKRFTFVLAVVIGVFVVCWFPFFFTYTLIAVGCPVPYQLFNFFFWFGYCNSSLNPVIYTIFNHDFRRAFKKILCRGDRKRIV
Protocol: as §1
Mallard N. J., Tyacke R., Hudson A. L. and Nutt D. S. Comparative binding studies of ^3 -idazoxan and ^3 -RX821002 in the rat brain. Brit. J. Pharmacol. 102, 221P, 1991.

5-HT1A = biological target: T5, 5-HT1A (Rattus norvegicus, UniProt P19327); experiment: 5-HT1A receptor binding (Peroutka)
T5 construct: from tissue; host or cells: rat frontal cortex
T5 sequence (P19327 1-422): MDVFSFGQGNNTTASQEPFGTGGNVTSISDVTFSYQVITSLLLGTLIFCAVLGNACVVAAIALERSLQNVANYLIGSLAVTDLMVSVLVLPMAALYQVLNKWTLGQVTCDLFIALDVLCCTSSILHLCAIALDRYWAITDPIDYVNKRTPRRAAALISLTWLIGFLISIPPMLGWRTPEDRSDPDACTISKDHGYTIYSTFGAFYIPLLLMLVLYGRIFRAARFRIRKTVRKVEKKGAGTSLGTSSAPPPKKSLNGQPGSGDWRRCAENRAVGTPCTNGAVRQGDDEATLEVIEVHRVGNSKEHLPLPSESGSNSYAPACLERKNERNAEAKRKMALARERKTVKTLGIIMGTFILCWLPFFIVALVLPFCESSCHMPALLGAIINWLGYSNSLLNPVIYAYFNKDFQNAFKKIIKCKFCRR
Protocol: as §1
(§2) Peroutka S. J. Pharmacological differentiation and characterization of 5-HT1A, 5-HT1B and 5-HT1C binding sites in rat frontal cortex. J. Neurochem., 45, 529-540, 1986.

α1-Adrenergic receptor = α1-Adrenergic receptor binding (Leslie Morrow and Creese); conditions: rat brain (title of cited method)
Protocol: as §1
Leslie Morrow A. and Creese I. Characterization of α1-adrenergic receptor subtypes in rat brain: a reevaluation of ^3 H-WB4101 and ^3 H prazosin binding. Mol. Pharmacol. 29, 321-330, 1986.

5-HT1B = biological target: T6, 5-HT1B (Rattus norvegicus, UniProt P28564); experiment: 5-HT1B receptor binding (Peroutka)
T6 construct: from tissue; host or cells: rat frontal cortex
Protocol: as §1, §2

[1] = rat frontal cortex (title of cited method), mean, read-out: IC50 5-HT1A mean
[2] = rat frontal cortex (title of cited method), mean, read-out: IC50 5-HT1B mean
[3] = porcine choroid plexus (title of cited method), read-out: IC50 5-HT1C

T6 sequence (P28564 whole entry): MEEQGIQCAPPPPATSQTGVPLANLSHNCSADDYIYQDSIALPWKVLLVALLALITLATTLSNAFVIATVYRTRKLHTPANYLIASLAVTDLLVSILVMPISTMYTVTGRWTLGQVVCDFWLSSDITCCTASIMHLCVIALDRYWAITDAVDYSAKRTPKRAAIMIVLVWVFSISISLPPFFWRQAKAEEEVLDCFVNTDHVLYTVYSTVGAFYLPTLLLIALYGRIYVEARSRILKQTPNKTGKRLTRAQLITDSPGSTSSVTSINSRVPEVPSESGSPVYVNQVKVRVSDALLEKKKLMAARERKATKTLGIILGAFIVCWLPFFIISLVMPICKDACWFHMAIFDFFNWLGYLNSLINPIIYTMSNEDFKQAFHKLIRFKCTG
T2 sequence (Q9GJU1 whole entry): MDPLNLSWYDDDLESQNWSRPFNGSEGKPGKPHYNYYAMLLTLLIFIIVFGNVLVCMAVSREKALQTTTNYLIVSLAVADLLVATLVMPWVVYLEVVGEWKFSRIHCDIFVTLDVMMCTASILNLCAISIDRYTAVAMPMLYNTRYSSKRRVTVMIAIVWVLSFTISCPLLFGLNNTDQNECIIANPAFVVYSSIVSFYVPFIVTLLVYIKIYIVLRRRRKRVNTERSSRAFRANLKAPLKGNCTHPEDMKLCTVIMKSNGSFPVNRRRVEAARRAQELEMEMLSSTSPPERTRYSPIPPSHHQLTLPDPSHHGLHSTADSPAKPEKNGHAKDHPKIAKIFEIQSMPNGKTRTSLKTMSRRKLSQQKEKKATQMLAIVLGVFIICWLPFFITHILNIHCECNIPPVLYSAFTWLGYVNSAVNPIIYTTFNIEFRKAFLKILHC
T1 sequence (P14842 whole entry): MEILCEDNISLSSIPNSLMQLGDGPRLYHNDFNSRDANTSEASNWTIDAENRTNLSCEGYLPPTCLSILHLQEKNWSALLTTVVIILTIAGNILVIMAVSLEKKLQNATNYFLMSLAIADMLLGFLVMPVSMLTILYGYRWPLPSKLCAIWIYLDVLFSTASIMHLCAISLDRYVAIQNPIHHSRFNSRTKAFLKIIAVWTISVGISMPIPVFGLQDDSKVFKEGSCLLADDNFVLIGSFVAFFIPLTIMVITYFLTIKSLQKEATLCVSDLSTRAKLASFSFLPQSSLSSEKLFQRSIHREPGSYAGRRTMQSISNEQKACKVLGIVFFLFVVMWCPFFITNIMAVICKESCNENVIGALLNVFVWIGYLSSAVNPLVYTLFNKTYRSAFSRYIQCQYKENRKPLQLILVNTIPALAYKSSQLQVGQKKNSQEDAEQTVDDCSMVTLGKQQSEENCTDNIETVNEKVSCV

SMILES	IC50 (5-HT2)	IC50 (D2-Dopaminergic receptor)	IC50 (5-HT1C)	Ratio 1A/1D (5-HT1D)	IC50 (α2-Adrenergic receptor)	IC50 (5-HT1A)	IC50 (α1-Adrenergic receptor)	IC50 (5-HT1B)	IC50 (5-HT1A; [1])	IC50 (5-HT1B; [2])	IC50 (5-HT1C; [3])
NCCc1c[nH]c2ccc(OCC(=O)N3CCN(c4cccc(C(F)(F)F)c4)CC3)cc12 [Example 3, 4-(a,a,a-Trifluoro-m-tolyl)-1-(tryptamine-5-O-carboxymethyl) piperazide hydrochloride]	> 1000 nM	> 1000 nM	4000 nM	4.8	> 1000 nM	33.5 nM	> 1000 nM	1.9 nM	–	–	–
CSc1ccc2c(c1)C(N1CCN(C(=O)COc3ccc4[nH]cc(CCNC(=O)OC(C)(C)C)c4c3)CC1)Cc1ccccc1S2 (stereo not drawn) [Example 8, 1-[(tert-Butoxycarbamate)tryptamine-5-O-carboxymethyl]-4-[10-(8-methylthio-10-11-dihydrodibenzo[b, f]thiepine)]piperazide hydrochloride]	–	–	–	–	–	–	–	–	> 1000 nM	1000 nM	–
COc1cccc(N2CCN(C(=O)COc3ccc4[nH]cc(CCNC(=O)OC(C)(C)C)c4c3)CC2)c1 [Example 6A, 4-(m-Methoxyphenyl)-1-(tert-butoxycarbamate-tryptamine-5-carboxymethyl)piperazide hydrochloride]	> 1000 nM	> 1000 nM	–	6.3	> 1000 nM	–	> 1000 nM	–	100 nM	1.5 nM	> 1000 nM
Cc1ccccc1N1CCN(C(=O)C(Oc2ccc3[nH]cc(CCN)c3c2)c2ccccc2)CC1 (stereo not drawn) [Example 9, 4-O-Tolyl-1-[tryptamine-5-O-(α-phenylcarboxymethyl)]piperazide hydrochloride]	550 nM	> 1000 nM	–	1.7	> 1000 nM	–	> 1000 nM	–	325 nM	85 nM	600 nM
Cc1cccc(N2CCN(C(=O)COc3ccc4[nH]cc(CCN)c4c3)CC2)c1C [Example 5, 4-(2,3-Xylyl)-1-(tryptamine-5-O-carboxymethyl) piperazide hydrochloride]	> 1000 nM	> 1000 nM	> 1000 nM	8.2	> 1000 nM	–	> 1000 nM	6 nM	240 nM	–	–
Cc1cccc(N2CCN(C(=O)COc3ccc4[nH]cc(CCNC(=O)OC(C)(C)C)c4c3)CC2)c1C [Example 5A, 4-(2,3 -Xylyl)-1-(tert-butoxycarbamate-tryptamine-5-O-carboxymethyl)piperazide hydrochloride]	> 1000 nM	> 1000 nM	–	17.3	> 1000 nM	–	> 1000 nM	–	34.5 nM	1 nM	1000 nM
